Test: Surface pressure change after peptide injection without lipid monolayer
Format: physicochemical
Conditions: peptide 0.2 µM injected into pure subphase, Hepes buffer pH 7.4, 22.5°C; defined as threshold for significant variation
Method: A number of control experiments were carried out in order to characterize the peptide-lipid monolayer interactions at the air-buffer interface. First, we determined surface pressure-time isotherms of Bax-α5S, a strongly amphipathic and hydrophobic peptide (Table 1), in presence or absence of lipids (POPC/DOPE/CL, see Figure 2). When the peptide was injected into a pure subphase without any lipid monolayer, the corresponding surface pressure change was Δπ = 4.8 mN/m (this value was subsequently defined as a threshold level for significant surface pressure variation). When the same injection was repeated but this time using a lipid monolayer over the aqueous subphase, at an initial surface pressure of 5 mN/m, the surface pressure rose up to Δπ = 32.1 mN/m (Figure 2). […] Then, we measured compression–decompression–recompression isotherms in presence of the peptide. […] After stabilization, the peptide was injected underneath the monolayer, πmax was recorded (32.1 mN/m) and the monolayer was decompressed.
Figure 2 Surface pressure-time isotherms for BAX-α5S with (bold line) or without (light line) POPC/DOPE/CL lipids. […] The initial velocity of surface pressure increase (Vi) was calculated as the slope of the curve (Δπ/Δt) at the time of peptide addition. […]

With “WGRVVALFYFASKLVLKALSTK [BAX-α5S, short peptide of the first helix (α5) of the central hairpin of BAX]” the “surface pressure change (Δπ) without lipid monolayer” value was 4.8 mN/m.
